Among the data in patent US20140206682A1, “COMPOUNDS AND COMPOSITIONS AS PDGFR KINASE INHIBITORS” (NOVARTIS PHARMACEUTICALS UK LIMITED, priority 2011, published 2014) are IC50 values, retold here.

Where only a bound is given, the exact number is not on record here.

For the first assay, the system named is PDGFR. The assay can be described thus: Rat A10 cell proliferation assay. The assay is classed as cell-based. The note with it: Table 1; Rat A10 cells, recombinant rat PDGF-BB, CellTiter-Glo after 68 hours. In a few lines:
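Rat A10 cells in DMEM with 1% FBS and 10 ng/mL rat PDGF-BB, preincubated 4 h at 37 °C, then exposed to 3-fold serially diluted compound for 68 h. Viability/proliferation read as CellTiter-Glo luminescence.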
Background: ATP-based viability assays read luminescence as a measure of living cells.
Broadly, the IC50 is the concentration that gives 50% inhibition. With `CCC[C@@H](CO)NC(=O)c1ccc(F)c(NC(=O)c2cnc3ccccn23)c1` [F110, N-(2-fluoro-5-{[(2S)-1-hydroxypentan-2-yl]carbamoyl}phenyl)imidazo[1,2-a]pyridine-3-carboxamide], the concentration for half-maximal inhibition (IC50) came out at 115 nM.

On to `COc1ccc2c(c1)[C@@H](NC(=O)c1ccc(F)c(NC(=O)c3cnc4ccc(C)cn34)c1)[C@@H](O)C2` [F111, N-(2-fluoro-5-{[(1R,2S)-2-hydroxy-6-methoxy-2,3-dihydro-1H-inden-1-yl]carbamoyl}phenyl)-6-methylimidazo[1,2-a]pyridine-3-carboxamide], for which the IC50 was 195 nM.

With `O=C(N[C@H](CO)c1ccccc1)c1ccc(F)c(NC(=O)c2cnc3ccccn23)c1` [F112, N-(2-fluoro-5-{[(1S)-2-hydroxy-1-phenylethyl]carbamoyl}phenyl)imidazo[1,2-a]pyridine-3-carboxamide], the IC50 was determined as 76 nM.

For the molecule `O=C(N[C@@H]1c2cc(F)ccc2C[C@@H]1O)c1ccc(F)c(NC(=O)c2cnc3ccc(F)cn23)c1` [F113, 6-fluoro-N-(2-fluoro-5-{[(1R,2S)-6-fluoro-2-hydroxy-2,3-dihydro-1H-inden-1-yl]carbamoyl}phenyl)imidazo[1,2-a]pyridine-3-carboxamide], the IC50 worked out at 113 nM.

In the case of `Cc1ccc2ncc(C(=O)Nc3cc(C(=O)N[C@H]4CCCC[C@@H]4O)ccc3F)n2c1` [F114, N-(2-fluoro-5-{[(1S,2S)-2-hydroxycyclohexyl]carbamoyl}phenyl)-6-methylimidazo[1,2-a]pyridine-3-carboxamide], the IC50 came out at 70 nM.

As for `Cc1ccn2c(C(=O)Nc3cc(C(=O)N[C@H]4CCCC[C@@H]4O)ccc3F)cnc2c1` [F115, N-(2-fluoro-5-{[(1S,2S)-2-hydroxycyclohexyl]carbamoyl}phenyl)-7-methylimidazo[1,2-a]pyridine-3-carboxamide], the IC50 amounted to 44 nM.

Turning to `O=C(NC[C@@H]1CCCC[C@H]1O)c1ccc(F)c(NC(=O)c2cnc3ccccn23)c1` [F116, N-[2-fluoro-5-({[(1S,2R)-2-hydroxycyclohexyl]methyl}carbamoyl)phenyl]imidazo[1,2-a]pyridine-3-carboxamide], the IC50 is 64 nM.

The same assay, now with this note: Table 2; Rat A10 cells, recombinant rat PDGF-BB, CellTiter-Glo after 68 hours.
Consider `Cc1ccc2ncc(C(=O)Nc3cc(C(=O)N[C@@H]4c5ccccc5C[C@@H]4O)c(Cl)cc3F)n2c1` [F85, N-(4-chloro-2-fluoro-5-{[(1R,2S)-2-hydroxy-2,3-dihydro-1H-inden-1-yl]carbamoyl}phenyl)-6-methylimidazo[1,2-a]pyridine-3-carboxamide], for which the IC50 amounted to 4020 nM.

On to `O=C(N[C@@H](CO)c1ccccc1)c1ccc(F)c(NC(=O)c2cnc3ccccn23)c1` [F86, N-(2-fluoro-5-{[(1R)-2-hydroxy-1-phenylethyl]carbamoyl}phenyl)imidazo[1,2-a]pyridine-3-carboxamide], for which the IC50 came out at 1510 nM.

For `Cc1ccc2ncc(C(=O)Nc3cc(C(=O)N[C@@H]4c5ccccc5C[C@@H]4O)c(F)cc3F)n2c1` [F87, N-(2,4-difluoro-5-{[(1R,2S)-2-hydroxy-2,3-dihydro-1H-inden-1-yl]carbamoyl}phenyl)-6-methylimidazo[1,2-a]pyridine-3-carboxamide], the IC50 worked out at 2860 nM.

For the molecule `Cc1ccc2ncc(C(=O)Nc3cc(C(=O)N[C@@H]4c5ccccc5C[C@@H]4O)c(C)cc3F)n2c1` [F88, N-(2-fluoro-5-{[(1R,2S)-2-hydroxy-2,3-dihydro-1H-inden-1-yl]carbamoyl}-4-methylphenyl)-6-methylimidazo[1,2-a]pyridine-3-carboxamide], the IC50 worked out at 2190 nM.

In the case of `Cc1ccc2ncc(C(=O)Nc3cc(C(=O)N[C@@H]4c5cc(F)ccc5C[C@@H]4O)c(C)cc3F)n2c1` [F89, N-(2-fluoro-5-{[(1R,2S)-6-fluoro-2-hydroxy-2,3-dihydro-1H-inden-1-yl]carbamoyl}-4-methylphenyl)-6-methylimidazo[1,2-a]pyridine-3-carboxamide], the IC50 is 1810 nM.

Take `O=C(NCC1(CO)CCCC1)c1ccc(F)c(NC(=O)c2cnc3ccccn23)c1` [F90, N-(2-fluoro-5-({[1-(hydroxymethyl)cyclopentyl]methyl}carbamoyl)phenyl]imidazo[1,2-a]pyridine-3-carboxamide]: the 50% inhibitory concentration (IC50) turned out to be 1760 nM.

Consider `O=C(NCC1(O)CCC1)c1ccc(F)c(NC(=O)c2cnc3ccccn23)c1` [F91, N-(2-fluoro-5-{[(1-hydroxycyclobutyl)methyl]carbamoyl}phenyl)imidazo[1,2-a]pyridine-3-carboxamide], for which the IC50 was 1740 nM.

Consider `CSc1ccc([C@H](O)[C@H](CO)NC(=O)c2ccc(F)c(NC(=O)c3cnc4ccccn34)c2)cc1` [F92, N-(5-{[(1S,2S)-1,3-dihydroxy-1-[4-(methylsulfanyl)phenyl]propan-2-yl]carbamoyl}-2-fluorophenyl)imidazo[1,2-a]pyridine-3-carboxamide], for which the 50% inhibitory concentration (IC50) is 283 nM.

In the case of `O=C(N[C@H]1CC[C@H](O)CC1)c1ccc(F)c(NC(=O)c2cnc3ccccn23)c1` [F93, N-{2-fluoro-5-[(4-hydroxycyclohexyl)carbamoyl]phenyl}imidazo[1,2-a]pyridine-3-carboxamide], the IC50 was found to be 1140 nM.

As for `O=C(NC[C@@H](O)c1ccccc1)c1ccc(F)c(NC(=O)c2cnc3ccccn23)c1` [F94, N-(2-fluoro-5-{[(2S)-2-hydroxy-2-phenylethyl]carbamoyl}phenyl)imidazo[1,2-a]pyridine-3-carboxamide], the IC50 stood at 239 nM.

For the molecule `C[C@H](NC(=O)c1ccc(F)c(NC(=O)c2cnc3ccccn23)c1)[C@@H](O)c1ccccc1` [F95, N-(2-fluoro-5-{[(1S,2S)-1-hydroxy-1-phenylpropan-2-yl]carbamoyl}phenyl)imidazo[1,2-a]pyridine-3-carboxamide], the IC50 turned out to be 219 nM.

`CSCC[C@@H](CO)NC(=O)c1ccc(F)c(NC(=O)c2cnc3ccccn23)c1` [F96, N-(2-fluoro-5-{[(2S)-1-hydroxy-4-(methylsulfanyl)butan-2-yl]carbamoyl}phenyl)imidazo[1,2-a]pyridine-3-carboxamide]: the IC50 turned out to be 556 nM.

Consider `O=C(NC[C@@H](O)c1cccc(O)c1)c1ccc(F)c(NC(=O)c2cnc3ccccn23)c1` [F97, N-(2-fluoro-5-{[(2S)-2-hydroxy-2-(3-hydroxyphenyl)ethyl]carbamoyl}phenyl)imidazo[1,2-a]pyridine-3-carboxamide], for which the IC50 was found to be 668 nM.

With `CC(C)(CO)NC(=O)c1ccc(F)c(NC(=O)c2cnc3ccccn23)c1` [F98, N-{2-fluoro-5-[(1-hydroxy-2-methylpropan-2-yl)carbamoyl]phenyl}imidazo[1,2-a]pyridine-3-carboxamide], the concentration for half-maximal inhibition (IC50) was > 10000 nM.

As to `O=C(N[C@@H]1CCCC(F)(F)[C@H]1O)c1ccc(F)c(NC(=O)c2cnc3ccccn23)c1` [F99, N-(5-{[(1R,2S)-3,3-difluoro-2-hydroxycyclohexyl]carbamoyl}-2-fluorophenyl)imidazo[1,2-a]pyridine-3-carboxamide], the IC50 was 325 nM.

`O=C(NCC1(O)CCNCC1)c1ccc(F)c(NC(=O)c2cnc3ccccn23)c1` [F100, N-(2-fluoro-5-{[(4-hydroxypiperidin-4-yl)methyl]carbamoyl}phenyl)imidazo[1,2-a]pyridine-3-carboxamide]: the IC50 was > 9020 nM.

As to `O=C(N[C@@H](c1ccccc1)[C@H](O)CO)c1ccc(F)c(NC(=O)c2cnc3ccccn23)c1` [F101, N-(5-{[(1S,2S)-2,3-dihydroxy-1-phenylpropyl]carbamoyl}-2-fluorophenyl)imidazo[1,2-a]pyridine-3-carboxamide], the IC50 turned out to be 429 nM.

For the molecule `CC(C)(O)[C@H]1CCCC[C@@H]1NC(=O)c1ccc(F)c(NC(=O)c2cnc3ccccn23)c1` [F102, N-(2-fluoro-5-{[(1S,2S)-2-(2-hydroxypropan-2-yl)cyclohexyl]carbamoyl}phenyl)imidazo[1,2-a]pyridine-3-carboxamide], the IC50 was determined as 425 nM.

Turning to `C[C@@]1(O)CCCC[C@H]1NC(=O)c1ccc(F)c(NC(=O)c2cnc3ccccn23)c1` [F103, N-(2-fluoro-5-{[(1R,2R)-2-hydroxy-2-methylcyclohexyl]carbamoyl}phenyl)imidazo[1,2-a]pyridine-3-carboxamide], the IC50 is > 10000 nM.

As to `O=C(N[C@H]1CC[C@@H](O)CC1)c1ccc(F)c(NC(=O)c2cnc3ccccn23)c1` [F104, N-{2-fluoro-5-[(4-hydroxycyclohexyl)carbamoyl]phenyl}imidazo[1,2-a]pyridine-3-carboxamide], the IC50 is > 10000 nM.

Regarding `O=C(N[C@@H]1CCSC[C@H]1O)c1ccc(F)c(NC(=O)c2cnc3ccccn23)c1` [F105, N-(2-fluoro-5-{[(3S,4R)-3-hydroxythian-4-yl]carbamoyl}phenyl)imidazo[1,2-a]pyridine-3-carboxamide], the IC50 was found to be 840 nM.

With `CC(C)(O)[C@@H]1CCCC[C@@H]1NC(=O)c1ccc(F)c(NC(=O)c2cnc3ccccn23)c1` [F106, N-(2-fluoro-5-{[(1S,2R)-2-(2-hydroxypropan-2-yl)cyclohexyl]carbamoyl}phenyl)imidazo[1,2-a]pyridine-3-carboxamide], the IC50 was found to be 813 nM.

Take `O=C(N[C@H](CO)[C@H](O)c1ccccc1)c1ccc(F)c(NC(=O)c2cnc3ccccn23)c1` [F107, N-(5-{[(1R,2R)-1,3-dihydroxy-1-phenylpropan-2-yl]carbamoyl}-2-fluorophenyl)imidazo[1,2-a]pyridine-3-carboxamide]: the IC50 was determined as 265 nM.

As for `Cc1ccn2c(C(=O)Nc3cc(C(=O)N[C@H]([C@@H](O)c4ccccc4)C(C)(C)O)ccc3F)cnc2c1` [F108, N-(5-{[(1S,2R)-1,3-dihydroxy-3-methyl-1-phenylbutan-2-yl]carbamoyl}-2-fluorophenyl)-7-methylimidazo[1,2-a]pyridine-3-carboxamide], the 50% inhibitory concentration (IC50) was 255 nM.

For the molecule `C[C@@H]1CC[C@H](O)[C@H](C)N1CCNC(=O)c1ccc(F)c(NC(=O)c2cnc3cc(-c4ccnn4C)ccn23)c1` [F109, N-[2-fluoro-5-({2-[(2S,3S,6R)-3-hydroxy-2,6-dimethylpiperidin-1-yl]ethyl}carbamoyl)phenyl]-7-(1-methyl-1H-pyrazol-5-yl)imidazo[1,2-a]pyridine-3-carboxamide], the IC50 is 295 nM.
